Measured values taken from ChEMBL document CHEMBL5729474, “Heterocyclic compound as a protein kinase inhibitor” (2022).

Biological target: Tyrosine-protein kinase JAK1 (Homo sapiens, UniProt P23458)
Assay: ADP-Glo Kinase Assay: A control material and a test material were prepared for each concentration, in such a way that they were diluted by means of DMSO. At the same time, ATP (250 uM) and JAK substrate (JAK1, IRS-itide 40 ng/mL) were prepared, in such a way that they were diluted by means of kinase buffer (40 mM Tris-HCl pH 7.5, 20 mM MgCl2, 0.5 mg/mL BSA, 50 uM DTT).A test drug for each concentration, substrate, ATP and JAK enzyme were mixed in an eppendorf tube, and reacted in a 30° C. incubator for 40 minutes.ADP-Glo™ reagent contained in ADP-Glo™ Kinase Enzyme System (Promega, USA, V9571) was added into each eppendorf tube, and reacted in a 30° C. incubator for 40 minutes. A kinase detection reagent contained in ADP-Go™ Kinase Enzyme System was inserted into the eppendorf tube, then an integration time was set to 1 second by using Wallac Victor 2™, then luminescence was measured, and then JAKs phosphorylation inhibition ability of the test material was analyzed. The concentration of the compound, which causes 50% of the JAK enzyme activity inhibition in comparison With the control group, was determined as IC50 (nM) of an inhibitor, wherein the results thereof are shown in a following table 1.

Sequence of Tyrosine-protein kinase JAK1 (P23458 whole entry): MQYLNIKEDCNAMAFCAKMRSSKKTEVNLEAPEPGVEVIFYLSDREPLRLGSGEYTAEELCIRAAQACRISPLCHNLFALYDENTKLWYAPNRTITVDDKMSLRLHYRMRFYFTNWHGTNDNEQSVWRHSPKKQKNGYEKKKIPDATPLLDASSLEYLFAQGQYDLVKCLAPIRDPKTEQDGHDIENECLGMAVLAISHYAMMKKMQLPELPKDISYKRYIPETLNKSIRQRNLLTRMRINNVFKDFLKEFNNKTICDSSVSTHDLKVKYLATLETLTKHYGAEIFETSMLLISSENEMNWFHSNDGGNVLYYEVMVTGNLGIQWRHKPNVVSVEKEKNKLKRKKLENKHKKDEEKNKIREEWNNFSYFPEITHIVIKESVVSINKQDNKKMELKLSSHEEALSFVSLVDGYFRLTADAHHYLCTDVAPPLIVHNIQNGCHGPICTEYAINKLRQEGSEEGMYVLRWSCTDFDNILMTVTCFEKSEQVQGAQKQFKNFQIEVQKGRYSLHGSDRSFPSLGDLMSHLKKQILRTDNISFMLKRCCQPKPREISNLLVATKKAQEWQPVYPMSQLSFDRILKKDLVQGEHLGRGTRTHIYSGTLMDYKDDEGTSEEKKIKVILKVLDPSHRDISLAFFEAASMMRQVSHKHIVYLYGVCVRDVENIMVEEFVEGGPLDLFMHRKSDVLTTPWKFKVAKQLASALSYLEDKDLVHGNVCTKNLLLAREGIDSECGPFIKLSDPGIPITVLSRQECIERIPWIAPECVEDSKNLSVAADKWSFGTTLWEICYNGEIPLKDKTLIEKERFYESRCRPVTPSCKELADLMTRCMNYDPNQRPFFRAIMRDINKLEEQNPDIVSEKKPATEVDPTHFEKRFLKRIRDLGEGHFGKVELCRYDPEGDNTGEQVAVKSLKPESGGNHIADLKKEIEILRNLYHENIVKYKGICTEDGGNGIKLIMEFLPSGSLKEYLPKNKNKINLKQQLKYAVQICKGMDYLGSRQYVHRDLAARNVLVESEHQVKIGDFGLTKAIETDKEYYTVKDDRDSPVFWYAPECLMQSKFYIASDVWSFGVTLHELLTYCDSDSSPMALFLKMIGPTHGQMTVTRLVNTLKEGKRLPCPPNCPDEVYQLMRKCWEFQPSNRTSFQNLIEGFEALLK

IC50 [nM] | Compound
> 200 | CCS(=O)(=O)Nc1ccc(-c2cc(NC(=O)C3CCCCC3)nc3[nH]ccc23)cc1F
> 200 | CC1CN(C(=O)c2cc(Cl)ncc2Cl)CC=C1c1cc(NC(=O)C2CC2)nc2[nH]ccc12 (centres undefined)
> 200 | O=C(Nc1cc(C2=CCN(C(=O)CBr)CC2)c2cc[nH]c2n1)C1CC1
> 200 | CC1CN(C(=O)c2cc(Cl)cc(Cl)c2O)CC=C1c1cc(NC(=O)C2CC2)nc2[nH]ccc12 (centres undefined)
> 200 | CCS(=O)(=O)Nc1ccc(-c2cc(NC(=O)C3CCCC3)nc3[nH]ccc23)cc1F
> 200 | CCS(=O)(=O)Nc1ccc(-c2cc(NC(=O)Cc3ccccc3)nc3[nH]ccc23)cc1F
> 200 | O=C(Nc1ccc(F)cc1)Nc1ccc(-c2cc(NC(=O)C3CC3)nc3[nH]ccc23)cc1
> 200 | O=C(Nc1cc(-c2ccc(CC(=O)N3CCN(S(=O)(=O)C(F)(F)F)CC3)cc2)c2cc[nH]c2n1)C1CC1
> 200 | CCC(=O)Nc1cc(-c2ccc(NS(=O)(=O)CC)c(F)c2)c2cc[nH]c2n1
